Calls of active or inactive are those of the source. The calls are words filed in the database; no cut-off is given here.
Key:
[1] = target: Neurotensin receptor type 1 (Rattus norvegicus) (UniProt P20789); assay: Agonist activity at rat neurotensin receptor type 1 expressed in CHOK1 cells assessed as increase in calcium release at 10 uM by FLIPR assay; assay type: functional, cell-based; conditions: CHO-K1
[2] = target: T1, Neurotensin receptor type 2 (Rattus norvegicus) (UniProt Q63384); assay: Antagonist activity at rat neurotensin receptor type 2 expressed in CHOK1 cells assessed as inhibition of SR142948a-induced calcium release at 10 uM by FLIPR assay; assay type: functional, cell-based; conditions: CHO-K1
T1 sequence (whole entry): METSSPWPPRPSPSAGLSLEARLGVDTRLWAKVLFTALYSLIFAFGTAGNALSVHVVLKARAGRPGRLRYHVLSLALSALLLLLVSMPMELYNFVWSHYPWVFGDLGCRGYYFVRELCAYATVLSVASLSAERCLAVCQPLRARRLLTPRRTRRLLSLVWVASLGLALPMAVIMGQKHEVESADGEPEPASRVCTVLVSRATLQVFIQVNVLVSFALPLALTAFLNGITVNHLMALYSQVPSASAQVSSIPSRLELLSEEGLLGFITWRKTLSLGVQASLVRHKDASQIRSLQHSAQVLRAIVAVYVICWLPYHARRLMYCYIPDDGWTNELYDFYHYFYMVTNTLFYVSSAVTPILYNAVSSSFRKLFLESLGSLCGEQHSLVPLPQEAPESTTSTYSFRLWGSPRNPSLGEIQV

[3] = target: T1, Neurotensin receptor type 2 (Rattus norvegicus); assay: Agonist activity at rat neurotensin receptor type 2 expressed in CHOK1 cells assessed as increase in calcium release at 10 uM by FLIPR assay; assay type: functional, cell-based; conditions: CHO-K1
[4] = target: Neurotensin receptor type 1 (Rattus norvegicus) (UniProt P20789); assay: Antagonist activity at rat neurotensin receptor type 1 expressed in CHOK1 cells assessed as inhibition of calcium release at 10 uM by FLIPR assay; assay type: functional, cell-based; conditions: CHO-K1
[5] = target: Neurotensin receptor type 1 (Rattus norvegicus) (UniProt P20789); assay: Agonist activity at rat neurotensin receptor type 1 expressed in CHOK1 cells assessed as increase in calcium release by FLIPR assay; assay type: functional, cell-based; conditions: CHO-K1
[6] = target: T2, Neurotensin receptor type 2 (Rattus norvegicus, UniProt Q63384); assay: Displacement of [[…]]NT from rat neurotensin receptor type 2 expressed in CHOK1 cells by radioligand binding assay; assay type: cell-based, CHO-K1
T2 sequence (Q63384 whole entry): T1 sequence (whole entry)

[7] = target: T1, Neurotensin receptor type 2 (Rattus norvegicus); assay: Agonist activity at rat neurotensin receptor type 2 expressed in CHOK1 cells assessed as increase in calcium release by FLIPR assay relative to SR142948a; assay type: functional, cell-based; conditions: CHO-K1
[8] = target: T2, Neurotensin receptor type 2; assay: Agonist activity at rat neurotensin receptor type 2 expressed in CHOK1 cells assessed as increase in calcium release by FLIPR assay; assay type: functional, cell-based, CHO-K1
[9] = target: Neurotensin receptor type 1 (Rattus norvegicus, UniProt P20789); assay: Displacement of [[…]]NT from rat neurotensin receptor type 1 expressed in CHOK1 cells by radioligand binding assay; assay type: cell-based, CHO-K1
Neurotensin receptor type 1, sequence (P20789 whole entry): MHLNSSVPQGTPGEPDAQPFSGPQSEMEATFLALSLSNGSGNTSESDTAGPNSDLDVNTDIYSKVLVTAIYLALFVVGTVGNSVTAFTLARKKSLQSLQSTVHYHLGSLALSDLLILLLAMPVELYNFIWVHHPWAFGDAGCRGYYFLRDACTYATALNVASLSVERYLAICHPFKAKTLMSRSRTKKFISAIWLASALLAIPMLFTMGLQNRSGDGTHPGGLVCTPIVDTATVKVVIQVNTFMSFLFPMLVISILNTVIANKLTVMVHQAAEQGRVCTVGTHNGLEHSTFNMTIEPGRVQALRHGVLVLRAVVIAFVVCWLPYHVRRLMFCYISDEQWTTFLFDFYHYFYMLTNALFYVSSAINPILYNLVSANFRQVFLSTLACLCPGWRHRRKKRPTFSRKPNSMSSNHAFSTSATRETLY

[10] = target: T2, Neurotensin receptor type 2; assay: Antagonist activity at rat neurotensin receptor type 2 expressed in CHOK1 cells assessed as inhibition of SR142948a-induced calcium release by FLIPR assay; assay type: functional, cell-based, CHO-K1

Neurotensin receptor type 1 (Rattus norvegicus), sequence (P20789 whole entry): as above

Row | Activity [1] | inhibition [2] | Activity [3] | inhibition [4] | Activity [5] | Ki [6] | Emax [7] | EC50 [8] | Ki [9] | IC50 [10] | SMILES
1 | inactive | inactive | inactive | inactive | – | – | – | – | – | – | COc1ccccc1C(=O)N/C(=C\c1ccc2c(c1)OCO2)C(=O)N[C@H](C(=O)O)C(C)C (stereo in doubt)
2 | – | – | – | – | inactive | 959 nM | 26% | 145 nM | – | – | COc1cccc(OC)c1-c1nc(C(=O)NC2(C(=O)O)CCCCC2)nc2ccc(Cl)cc12
3 | inactive | inactive | inactive | inactive | – | – | – | – | – | – | O=C(O)c1ccc(NC(=S)NC(=O)C(c2ccccc2)c2ccccc2)cc1Cl
4 | inactive | inactive | inactive | inactive | – | – | – | – | – | – | Cc1ccc(C(=O)O)cc1NC(=S)NC(=O)C(c1ccccc1)c1ccccc1
5 | – | – | – | – | – | 7 nM | – | 18 nM | 2 nM | – | COc1cccc(OC)c1-c1cc(C(=O)NC2(C(=O)O)C3CC4CC(C3)CC2C4)nn1-c1ccc(C(=O)N(C)CCCN(C)C)cc1C(C)C (centres undefined)
6 | inactive | 20% | inactive | inactive | – | – | – | – | – | – | O=C(O)c1cc(Nc2nc(-c3ccccc3)c3cc(Cl)ccc3n2)ccc1O
7 | inactive | inactive | inactive | inactive | – | – | – | – | – | – | Cc1c(NC(=S)NC(=O)C(c2ccccc2)c2ccccc2)cccc1C(=O)O
8 | inactive | inactive | inactive | inactive | – | – | – | – | – | – | COc1ccc(C(=O)N/C(=C\c2cccc([N+](=O)[O-])c2)C(=O)N[C@@H](CC(C)C)C(=O)O)cc1
9 | inactive | inactive | inactive | inactive | – | – | – | – | – | – | COc1ccc(C(=O)N/C(=C\c2ccccc2)C(=O)N[C@H](C(=O)O)C(C)C)cc1
10 | inactive | inactive | inactive | inactive | – | – | – | – | – | – | COc1ccc(C(=O)O)cc1NC(=S)NC(=O)C(c1ccccc1)c1ccccc1
11 | – | – | – | – | inactive | 474 nM | – | – | – | 1070 nM | COc1cccc(OC)c1-c1nc(C(=O)N[C@H](C(=O)O)C2CCCCC2)nc2ccc(Cl)cc12
12 | inactive | inactive | inactive | inactive | – | – | – | – | – | – | O=C1NC(=O)N(c2ccc(C(=O)O)cc2)C(=O)/C1=C/c1c(OCc2ccccc2)ccc2ccccc12
13 | inactive | inactive | inactive | inactive | – | – | – | – | – | – | CC(C)[C@H](NC(=O)/C(=C/c1ccccc1)NC(=O)c1ccccc1)C(=O)O
14 | inactive | inactive | inactive | inactive | – | – | – | – | – | – | O=C(O)c1cccc(NC(=S)NC(=O)C(c2ccccc2)c2ccccc2)c1

Reference: ChEMBL document CHEMBL3352457 (Bioorg Med Chem Lett, 2015)
